In US12275731B2, “Azaindole inhibitors of wild-type and mutant forms of LRRK2” (DANA-FARBER CANCER INSTITUTE, INC., priority 2018, dated 2025):

Legend:
Assay in all cases: KinomeScan profiling
Assay type in all cases: binding
DDR2 = molecular target: T1, DDR2 (Homo sapiens, UniProt Q16832); settings: DDR2, 1 μM; read-out: % control
T1 sequence (Q16832 22-855): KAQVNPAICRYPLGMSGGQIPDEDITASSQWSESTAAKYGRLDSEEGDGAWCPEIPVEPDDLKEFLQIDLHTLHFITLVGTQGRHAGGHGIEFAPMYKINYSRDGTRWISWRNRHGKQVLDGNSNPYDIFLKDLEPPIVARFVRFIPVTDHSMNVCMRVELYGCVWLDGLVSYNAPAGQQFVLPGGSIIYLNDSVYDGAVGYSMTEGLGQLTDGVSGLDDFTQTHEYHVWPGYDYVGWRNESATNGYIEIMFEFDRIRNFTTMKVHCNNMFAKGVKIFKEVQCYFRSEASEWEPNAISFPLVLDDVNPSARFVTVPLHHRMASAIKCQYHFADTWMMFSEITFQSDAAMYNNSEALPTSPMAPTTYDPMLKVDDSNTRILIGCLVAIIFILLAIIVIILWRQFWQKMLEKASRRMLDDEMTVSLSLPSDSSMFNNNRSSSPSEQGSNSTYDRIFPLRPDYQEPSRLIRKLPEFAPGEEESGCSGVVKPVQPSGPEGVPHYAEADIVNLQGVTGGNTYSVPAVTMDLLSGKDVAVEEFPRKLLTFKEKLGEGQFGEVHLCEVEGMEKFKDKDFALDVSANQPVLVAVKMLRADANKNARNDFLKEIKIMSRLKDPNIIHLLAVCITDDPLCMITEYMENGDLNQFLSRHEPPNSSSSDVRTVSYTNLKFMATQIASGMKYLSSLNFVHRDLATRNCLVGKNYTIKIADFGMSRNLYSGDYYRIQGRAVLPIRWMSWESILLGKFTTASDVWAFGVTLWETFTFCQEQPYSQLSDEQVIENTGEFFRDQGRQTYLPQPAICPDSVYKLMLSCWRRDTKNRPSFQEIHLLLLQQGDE
Summary of the method: (§1)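 Normalised RLU (% control; DMSO 100%, positive control 0%) was measured for compounds dosed at 1 μM over 468 kinases, active cut-off <35%.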

IKK-beta = molecular target: T2, IKK-beta (Homo sapiens, UniProt O14920); settings: read-out: % control
T2 construct: purchased KinomeScan®
T2 sequence (O14920 1-756): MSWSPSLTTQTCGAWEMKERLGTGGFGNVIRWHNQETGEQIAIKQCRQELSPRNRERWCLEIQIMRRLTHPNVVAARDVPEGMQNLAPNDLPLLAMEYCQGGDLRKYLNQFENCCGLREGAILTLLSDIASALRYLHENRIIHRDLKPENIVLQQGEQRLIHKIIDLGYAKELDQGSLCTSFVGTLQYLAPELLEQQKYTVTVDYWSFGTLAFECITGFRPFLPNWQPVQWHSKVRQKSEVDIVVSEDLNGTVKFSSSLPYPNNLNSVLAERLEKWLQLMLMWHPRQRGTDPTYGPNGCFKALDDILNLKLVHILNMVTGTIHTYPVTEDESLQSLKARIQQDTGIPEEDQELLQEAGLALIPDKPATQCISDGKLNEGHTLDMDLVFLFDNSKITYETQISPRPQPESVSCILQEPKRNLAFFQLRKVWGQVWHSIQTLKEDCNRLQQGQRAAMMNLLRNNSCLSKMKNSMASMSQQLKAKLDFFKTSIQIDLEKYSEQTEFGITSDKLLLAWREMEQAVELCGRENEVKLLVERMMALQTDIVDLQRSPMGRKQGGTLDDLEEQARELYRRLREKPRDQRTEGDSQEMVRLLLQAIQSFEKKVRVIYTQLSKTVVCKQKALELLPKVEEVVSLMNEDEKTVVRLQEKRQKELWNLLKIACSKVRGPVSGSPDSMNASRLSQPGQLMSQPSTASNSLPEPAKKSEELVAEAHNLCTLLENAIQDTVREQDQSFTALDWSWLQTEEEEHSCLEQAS
Summary of the method: as §1

[1] = molecular target: T3, JAK1(JH1domain-catalytic) (Homo sapiens, UniProt P23458); settings: read-out: % control
T3 construct: JAK1(JH1domain-catalytic); purchased KinomeScan®
T3 sequence (P23458 875-1153 limits assumed): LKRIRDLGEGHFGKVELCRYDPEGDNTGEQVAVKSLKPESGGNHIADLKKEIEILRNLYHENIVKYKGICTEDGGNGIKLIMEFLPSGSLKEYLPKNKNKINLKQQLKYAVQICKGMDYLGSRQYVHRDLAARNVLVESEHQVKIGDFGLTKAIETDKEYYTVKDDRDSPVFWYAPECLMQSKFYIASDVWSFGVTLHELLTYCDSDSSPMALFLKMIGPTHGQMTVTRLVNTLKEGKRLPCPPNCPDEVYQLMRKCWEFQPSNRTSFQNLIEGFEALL
Summary of the method: as §1

MST1 = molecular target: T4, MST1 (Homo sapiens, UniProt Q13043); settings: MST1, 1 μM; read-out: % control
T4 sequence (Q13043 1-487): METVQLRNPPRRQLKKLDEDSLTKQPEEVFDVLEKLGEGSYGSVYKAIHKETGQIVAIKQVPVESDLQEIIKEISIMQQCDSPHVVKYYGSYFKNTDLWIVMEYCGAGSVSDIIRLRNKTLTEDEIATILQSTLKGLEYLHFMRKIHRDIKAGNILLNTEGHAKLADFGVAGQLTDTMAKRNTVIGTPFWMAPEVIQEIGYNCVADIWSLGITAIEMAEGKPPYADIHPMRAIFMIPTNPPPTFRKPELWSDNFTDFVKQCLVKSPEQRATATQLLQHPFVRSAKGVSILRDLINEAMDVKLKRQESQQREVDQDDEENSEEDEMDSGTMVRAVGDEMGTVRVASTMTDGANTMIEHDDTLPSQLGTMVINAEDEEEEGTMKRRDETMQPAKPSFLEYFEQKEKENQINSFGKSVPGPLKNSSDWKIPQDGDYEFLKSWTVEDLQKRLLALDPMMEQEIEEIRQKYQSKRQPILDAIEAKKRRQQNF
Summary of the method: as §1

MYLK4 = molecular target: T5, MYLK4 (Homo sapiens, UniProt Q86YV6); settings: MYLK4, 1 μM; read-out: % control
T5 sequence (Q86YV6 1-388): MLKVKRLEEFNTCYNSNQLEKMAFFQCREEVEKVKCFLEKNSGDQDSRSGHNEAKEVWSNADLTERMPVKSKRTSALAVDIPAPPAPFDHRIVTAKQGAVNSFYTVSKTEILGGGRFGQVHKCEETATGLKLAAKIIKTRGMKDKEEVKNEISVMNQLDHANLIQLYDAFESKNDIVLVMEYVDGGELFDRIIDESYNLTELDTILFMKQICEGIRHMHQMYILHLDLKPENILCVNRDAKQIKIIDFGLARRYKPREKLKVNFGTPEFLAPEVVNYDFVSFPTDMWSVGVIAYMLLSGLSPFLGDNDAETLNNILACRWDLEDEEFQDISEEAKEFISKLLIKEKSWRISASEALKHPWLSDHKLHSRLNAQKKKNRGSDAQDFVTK
Summary of the method: as §1

TLK2 = TLK2 (Homo sapiens, UniProt Q86UE8); settings: TLK2, 1 μM; read-out: % control
Chain of TLK2 (Q86UE8 whole entry): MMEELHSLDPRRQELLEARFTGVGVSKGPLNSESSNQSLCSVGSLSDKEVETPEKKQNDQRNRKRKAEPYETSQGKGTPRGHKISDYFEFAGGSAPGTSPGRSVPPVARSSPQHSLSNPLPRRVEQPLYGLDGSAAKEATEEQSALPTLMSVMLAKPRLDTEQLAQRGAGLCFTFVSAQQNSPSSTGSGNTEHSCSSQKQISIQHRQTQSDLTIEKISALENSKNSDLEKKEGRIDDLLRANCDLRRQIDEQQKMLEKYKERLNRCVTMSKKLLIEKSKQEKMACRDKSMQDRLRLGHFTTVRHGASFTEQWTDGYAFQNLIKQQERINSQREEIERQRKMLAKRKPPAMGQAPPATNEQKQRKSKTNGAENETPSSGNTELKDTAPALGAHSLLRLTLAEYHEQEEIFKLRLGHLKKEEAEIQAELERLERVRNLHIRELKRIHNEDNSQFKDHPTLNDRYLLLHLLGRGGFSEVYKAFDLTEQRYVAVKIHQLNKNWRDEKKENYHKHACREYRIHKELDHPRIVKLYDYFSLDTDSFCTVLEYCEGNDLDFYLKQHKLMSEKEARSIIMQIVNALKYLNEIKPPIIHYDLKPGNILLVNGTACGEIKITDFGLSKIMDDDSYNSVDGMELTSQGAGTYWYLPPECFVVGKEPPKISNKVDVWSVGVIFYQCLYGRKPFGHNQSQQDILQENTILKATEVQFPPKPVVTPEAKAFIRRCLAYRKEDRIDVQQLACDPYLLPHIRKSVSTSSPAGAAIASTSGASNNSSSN
Summary of the method: as §1

Compound | remaining binding at 1 µM (DDR2) [%] | remaining binding at 1 µM (IKK-beta) [%] | remaining binding at 1 µM [1] [%] | remaining binding at 1 µM (MST1) [%] | remaining binding at 1 µM (MYLK4) [%] | remaining binding at 1 µM (TLK2) [%]
O=C(c1ccc(-c2cnc3[nH]cc(Cl)c3c2NC2CCCC2)cc1)N1CCC(N2CCOCC2)CC1 [Compound 101, (4-(3-chloro-4-(cyclopentylamino)-1H-pyrrolo[2,3-b]pyridin-5-yl)phenyl)(4-morpholinopiperidin-1-yl)methanone] | 100 | 93 | 90 | 82 | 95 | 100
CNc1c(-c2cnn([C@H]3CCN(C(C)=O)C[C@@H]3F)c2)cnc2[nH]cc(Cl)c12 [Compound 77, 1-((3S,4S)-4-(4-(3-chloro-4-(methylamino)-1H-pyrrolo[2,3-b]pyridin-5-yl)-1H-pyrazol-1-yl)-3-fluoropiperidin-1-yl)ethan-1-one] | 86 | 28 | 98 | 93 | 90 | 99
CNc1c(-c2ccc(C(=O)N3CCC(N4CCOCC4)CC3)cc2)cnc2[nH]cc(Cl)c12 [Compound 96, (4-(3-chloro-4-(methylamino)-1H-pyrrolo[2,3-b]pyridin-5-yl)phenyl)(4-morpholinopiperidin-1-yl)methanone] | 79 | 32 | 100 | 81 | 100 | 100
